Values quoted from earlier work in PubChem BioAssay AID1259409 (Chemical Carcinogenesis Research Information System (CCRIS), 2018).

System: rodent chemically induced tumor inhibition, incidence and multiplicity
Assay: CCRIS tumor inhibitor studies

## COc1ccc2c(c1)c(CC(=O)O)c(C)n2C(=O)c1ccc(Cl)cc1
Carcinogen: 1,2-DIMETHYLHYDRAZINE DIHYDROCHLORIDE, 306-37-6, Dose [Inhibitor]: 20 MG/L TAP WATER DAILY FOR 32 WK STARTING SIMULTANEOUSLY WITH CARCINOGEN TREATMENT (STUDY DURATION: 32 WK), Route [Inhibitor]: ORAL, Species: RAT, Strain/Sex: SPRAGUE-DAWLEY/MALE, Target Tissue: Type of Lesion: LARGE INTESTINE: TUMOR, Dose [Carcinogen]: 20 MG/KG BW 1/WK FOR 20 WK, Promoter: NONE USED
  tumour outcome (control, treated, inhibition, significance): 88%, 56%, 36%, p<0.005
Carcinogen: 1,2-DIMETHYLHYDRAZINE DIHYDROCHLORIDE, 306-37-6, Dose [Inhibitor]: 20 MG/L TAP WATER DAILY FOR 32 WK STARTING SIMULTANEOUSLY WITH CARCINOGEN TREATMENT (STUDY DURATION: 32 WK), Route [Inhibitor]: ORAL, Species: RAT, Strain/Sex: SPRAGUE-DAWLEY/MALE, Target Tissue: Type of Lesion: SMALL INTESTINE: TUMOR, Dose [Carcinogen]: 20 MG/KG BW 1/WK FOR 20 WK, Promoter: NONE USED
  tumour outcome (control, treated, inhibition, significance): 46%, 31%, 33%, not significant
Carcinogen: 1,2-DIMETHYLHYDRAZINE, 540-73-8, Dose [Inhibitor]: 20 MG/L IN DRINKING WATER DAILY FOR 15 WK STARTING 34 D AFTER CARCINOGEN ADMINISTRATION (STUDY DURATION: 20 WK), Route [Inhibitor]: ORAL, Species: RAT, Strain/Sex: SPRAGUE-DAWLEY/MALE, Target Tissue: Type of Lesion: INTESTINE: TUMOR, Dose [Carcinogen]: 30 MG/KG BW ONCE, Promoter: NONE USED
  tumour outcome (control, treated, inhibition, significance): 9/10 (90%), 2/9 (22%), 76%, p 0.0019
Carcinogen: 1-HYDROXYANTHRAQUINONE, 129-43-1, Dose [Inhibitor]: 0, 16 PMM IN DRINKING WATER FOR 48 WK (STUDY DURATION: 48 WK), Route [Inhibitor]: ORAL, Species: RAT, Strain/Sex: ACI/MALE, Target Tissue: Type of Lesion: LARGE BOWEL: ADENOCARCINOMA, Dose [Carcinogen]: 1.5% IN DIET FOR 48 WK, Promoter: NONE USED
  tumour outcome (control, treated, inhibition, significance): 7/27 (26%), 0/14 (0%), 100%), p= 0.03
Carcinogen: 1-HYDROXYANTHRAQUINONE, 129-43-1, Dose [Inhibitor]: 0, 16 PPM IN DRINKING WATER FOR 48 WK (STUDY DURATION: 48 WK), Route [Inhibitor]: ORAL, Species: RAT, Strain/Sex: ACI/MALE, Target Tissue: Type of Lesion: CECUM: ADENOCARCINOMA, Dose [Carcinogen]: 1.5% IN DIET FOR 48 WK, Promoter: NONE USED
  tumour outcome (control, treated, inhibition, significance): 3/27 (11%), 0/14 (0%), 100%, not calculated
Carcinogen: 1-HYDROXYANTHRAQUINONE, 129-43-1, Dose [Inhibitor]: 0, 16 PPM IN DRINKING WATER FOR 48 WK (STUDY DURATION: 48 WK), Route [Inhibitor]: ORAL, Species: RAT, Strain/Sex: ACI/MALE, Target Tissue: Type of Lesion: CECUM: ADENOMA, Dose [Carcinogen]: 1.5% IN DIET FOR 48 WK, Promoter: NONE USED
  tumour outcome (control, treated, inhibition, significance): 2/27 (7%), 0/14 (0%), 100%, not calculated
Carcinogen: 1-HYDROXYANTHRAQUINONE, 129-43-1, Dose [Inhibitor]: 0, 16 PPM IN DRINKING WATER FOR 48 WK (STUDY DURATION: 48 WK), Route [Inhibitor]: ORAL, Species: RAT, Strain/Sex: ACI/MALE, Target Tissue: Type of Lesion: COLON: ADENOCARCINOMA, Dose [Carcinogen]: 1.5% IN DIET FOR 48 WK, Promoter: NONE USED
  tumour outcome (control, treated, inhibition, significance): 5/27 (19%), 0/14 (0%), 100%, not calculated
Carcinogen: 1-HYDROXYANTHRAQUINONE, 129-43-1, Dose [Inhibitor]: 0, 16 PPM IN DRINKING WATER FOR 48 WK (STUDY DURATION: 48 WK), Route [Inhibitor]: ORAL, Species: RAT, Strain/Sex: ACI/MALE, Target Tissue: Type of Lesion: COLON: ADENOMA OR ADENOCARCINOMA, Dose [Carcinogen]: 1.5% IN DIET FOR 48 WK, Promoter: NONE USED
  tumour outcome (control, treated, inhibition, significance): 9/27 (33%), 0/14 (0%), 100%, p<0.01
Carcinogen: 1-HYDROXYANTHRAQUINONE, 129-43-1, Dose [Inhibitor]: 0, 16 PPM IN DRINKING WATER FOR 48 WK (STUDY DURATION: 48 WK), Route [Inhibitor]: ORAL, Species: RAT, Strain/Sex: ACI/MALE, Target Tissue: Type of Lesion: COLON: ADENOMA, Dose [Carcinogen]: 1.5% IN DIET FOR 48 WK, Promoter: NONE USED
  tumour outcome (control, treated, inhibition, significance): 4/27 (15%), 0/14 (0%), 100%, not calculated
Carcinogen: 1-HYDROXYANTHRAQUINONE, 129-43-1, Dose [Inhibitor]: 0, 16 PPM IN DRINKING WATER FOR 48 WK (STUDY DURATION: 48 WK), Route [Inhibitor]: ORAL, Species: RAT, Strain/Sex: ACI/MALE, Target Tissue: Type of Lesion: FORESTOMACH: PAPILLOMA, Dose [Carcinogen]: 1.5% IN DIET FOR 48 WK, Promoter: NONE USED
  outcome: 14/27 (52%), 2/14 (14%), p= 0.01
Carcinogen: 1-HYDROXYANTHRAQUINONE, 129-43-1, Dose [Inhibitor]: 0, 16 PPM IN DRINKING WATER FOR 48 WK (STUDY DURATION: 48 WK), Route [Inhibitor]: ORAL, Species: RAT, Strain/Sex: ACI/MALE, Target Tissue: Type of Lesion: FORESTOMACH: TUMOR, Dose [Carcinogen]: 1.5% IN DIET FOR 48 WK, Promoter: NONE USED
  tumour outcome (control, treated, inhibition, significance): 14/27 (52%), 2/14 (14%), 73%, p<0.01
Carcinogen: 1-HYDROXYANTHRAQUINONE, 129-43-1, Dose [Inhibitor]: 0, 16 PPM IN DRINKING WATER FOR 48 WK (STUDY DURATION: 48 WK), Route [Inhibitor]: ORAL, Species: RAT, Strain/Sex: ACI/MALE, Target Tissue: Type of Lesion: LARGE BOWEL: ADENOMA, Dose [Carcinogen]: 1.5% IN DIET FOR 48 WK, Promoter: NONE USED
  tumour outcome (control, treated, inhibition, significance): 5/27 (19%), 0/14 (0%), 100%, not calculated
Carcinogen: 1-HYDROXYANTHRAQUINONE, 129-43-1, Dose [Inhibitor]: 0, 16 PPM IN DRINKING WATER FOR 48 WK (STUDY DURATION: 48 WK), Route [Inhibitor]: ORAL, Species: RAT, Strain/Sex: ACI/MALE, Target Tissue: Type of Lesion: LARGE BOWEL: TUMOR, Dose [Carcinogen]: 1.5% IN DIET FOR 48 WK, Promoter: NONE USED
  tumour outcome (control, treated, inhibition, significance): 12/27 (44%), 0/14 (0%), 100%, not calculated
Carcinogen: 1-HYDROXYANTHRAQUINONE, 129-43-1, Dose [Inhibitor]: 0, 16 PPM IN DRINKING WATER FOR 48 WK (STUDY DURATION: 48 WK), Route [Inhibitor]: ORAL, Species: RAT, Strain/Sex: ACI/MALE, Target Tissue: Type of Lesion: LIVER: NEOPLASTIC NODULE, Dose [Carcinogen]: 1.5% IN DIET FOR 48 WK, Promoter: NONE USED
  tumour outcome (control, treated, inhibition, significance): 1/27 (4%), 0/14 (0%), 100%, not calculated
Carcinogen: 1-HYDROXYANTHRAQUINONE, 129-43-1, Dose [Inhibitor]: 0, 16 PPM IN DRINKING WATER FOR 48 WK (STUDY DURATION: 48 WK), Route [Inhibitor]: ORAL, Species: RAT, Strain/Sex: ACI/MALE, Target Tissue: Type of Lesion: LIVER: TUMOR, Dose [Carcinogen]: 1.5% IN DIET FOR 48 WK, Promoter: NONE USED
  tumour outcome (control, treated, inhibition, significance): 1/27 (4%), 0/14 (0%), 100%, not calculated
Carcinogen: 2-ACETYLAMINOFLUORENE, 53-96-3, Dose [Inhibitor]: 0, 10 PPM IN DRINKING WATER FOR 18 WK BEGINNING 1 WK PRIOR TO CARCINOGEN TREATMENT (STUDY DURATION: 36 WK), Route [Inhibitor]: ORAL, Species: RAT, Strain/Sex: ACI/N/MALE, Target Tissue: Type of Lesion: LIVER: TUMOR, Dose [Carcinogen]: 200 PPM IN DIET FOR 16 WK, Promoter: NONE USED
  tumour outcome (control, treated, inhibition, significance): 10/10 (100%), 1/10 (10%), 90%, p=0.00006
Carcinogen: 4-HYDROXYBUTYL(BUTYL)NITROSAMINE [3817-11-6], Dose [Inhibitor]: 20 MG/KG IN DIET 1 WK AFTER CARCINOGEN (STUDY DURATION: 32 WK), Route [Inhibitor]: DIET, Species: MOUSE, Strain/Sex: B6D2F1/MALE, Target Tissue: Type of Lesion: BLADDER: CARCINOMA, Dose [Carcinogen]: 7.5 MG/WK FOR 12 WK
  outcome: 32, 6, 81%
Carcinogen: 4-HYDROXYBUTYL(BUTYL)NITROSAMINE [3817-11-6], Dose [Inhibitor]: 20 MG/KG IN DIET 1 WK AFTER LAST CARCINOGEN DOSE (STUDY DURATION: 61 WK), Route [Inhibitor]: DIET, Species: MOUSE, Strain/Sex: B6D2F1/MALE, Target Tissue: Type of Lesion: BLADDER: CARCINOMA, Dose [Carcinogen]: 7.5 MG/WK FOR 12 WK
  outcome: 66, 26, 61%
Carcinogen: 4-HYDROXYBUTYL(BUTYL)NITROSAMINE [3817-11-6], Dose [Inhibitor]: 20 MG/KG IN DIET 1 WK AFTER LAST CARCINOGEN DOSE FOR 12 WK (STUDY DURATION: 42 WK), Route [Inhibitor]: DIET, Species: MOUSE, Strain/Sex: B6D2F1/MALE, Target Tissue: Type of Lesion: BLADDER: CARCINOMA, Dose [Carcinogen]: 7.5 MG/WK FOR 12 WK
  outcome: 31, 16, 48%
